Source: ChEMBL document CHEMBL5291721, “A preclinical secondary pharmacology resource illuminates target-adverse drug reaction associations of marketed drugs” (Nat Commun, 2023)

target: Beta-1 adrenergic receptor (Homo sapiens, UniProt P08588); assay type: functional, cell-based
Note: assay procedure not described here.

Sequence of Beta-1 adrenergic receptor (P08588 whole entry): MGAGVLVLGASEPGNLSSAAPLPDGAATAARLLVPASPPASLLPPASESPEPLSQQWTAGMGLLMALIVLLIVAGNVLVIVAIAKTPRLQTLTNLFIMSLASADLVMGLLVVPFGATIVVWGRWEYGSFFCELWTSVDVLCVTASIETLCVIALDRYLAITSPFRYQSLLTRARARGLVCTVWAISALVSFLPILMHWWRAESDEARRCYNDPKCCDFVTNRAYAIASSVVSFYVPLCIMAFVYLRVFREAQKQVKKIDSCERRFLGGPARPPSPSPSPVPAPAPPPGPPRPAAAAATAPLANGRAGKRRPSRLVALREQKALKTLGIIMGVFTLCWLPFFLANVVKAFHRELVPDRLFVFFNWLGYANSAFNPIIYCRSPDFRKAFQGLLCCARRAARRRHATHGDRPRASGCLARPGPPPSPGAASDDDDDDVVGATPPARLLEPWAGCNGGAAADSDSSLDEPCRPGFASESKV

Row | Structure (SMILES) | AC50
1 | CCC(C(=O)O)c1ccc(CC(C)C)cc1 (configuration not stated) [BUTIBUFEN] | > 30 µM
2 | C1=Cc2cccc(OCC3CNCCO3)c2C1 (configuration not stated) [INDELOXAZINE] | > 30 µM
3 | O=C(O)Cc1cn(-c2ccccc2)nc1-c1ccc(Cl)cc1 [LONAZOLAC] | > 30 µM
4 | C#C[C@]1(O)CC[C@H]2[C@@H]3CCC4=CCCC[C@@H]4[C@H]3CC[C@@]21C [LYNESTRENOL] | > 30 µM
5 | C[C@]12CCC(=O)C=C1CC[C@@H]1[C@@H]2CC[C@@]2(C)[C@H]1CC[C@]2(C)O [METHYLTESTOSTERONE] | > 30 µM
6 | COc1c(C)c2c(c(O)c1C/C=C(\C)CCC(=O)OCCN1CCOCC1)C(=O)OC2 [MYCOPHENOLATE MOFETIL] | > 30 µM
7 | Cc1c(Cl)cccc1Nc1ccccc1C(=O)O [TOLFENAMIC ACID] | > 30 µM
